Assay results as given in patent publication US20250170090A1, “METHOD FOR PREVENTING OR TREATING DISEASE OR DISORDER ASSOCIATED WITH ANTINEOPLASTIC AGENT” (ONQUALITY PHARMACEUTICALS CHINA LTD., priority 2022, published 2025).
Read-outs that look alike come from different tables or passages of the source.

Experiments:
[1] = test system: chemotherapy-induced hand-foot syndrome; test: Prevention of chemotherapy-induced hand-foot syndrome in rat models (Table 5); type: in vivo, SD rats
Outline: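 SD rats (~200 g, 10 per group) received chemotherapy drugs by gavage at 1 mL/100 g, then NO-NSAID ointment or blank ointment was applied to the paws. Hand-foot syndrome incidence was recorded, and control rate was taken as blank-group incidence minus treated-group incidence.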

[2] = test system: HUVEC cells; test: CCK-8 cell viability: alleviation of proliferative toxicity of anti-tumor agents on HUVEC cells (Tables 7-1, 7-2); type: cell-based; details: for activation at 100 µM: Homo sapiens, 24 h, percentage increase in viable cells vs anti-tumor agent alone, read-out: Response rate % (average)
Outline: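 HUVEC cells were treated with anti-tumor agent (DMSO solvent) alone or combined with NO-NSAID (ethanol or water solvent), and NO-NSAID solvent controls were used for correction. After 24-48 h of culture, viability was read by CCK-8 to derive proliferative toxicity and how much NO-NSAID mitigated it.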

[3] = Afatinib (10 μM), NO-NSAID 100 μM
[4] = Cabozantinib (5 μM), NO-NSAID 100 μM
[5] = Dabrafenib (10 μM), NO-NSAID 100 μM
[6] = Everolimus (5 μM), NO-NSAID 100 μM
[7] = Infigratinib (15 μM), NO-NSAID 100 μM
[8] = Lapatinib (5 μM), NO-NSAID 100 μM
[9] = Lenvatinib (10 μM), NO-NSAID 100 μM
[10] = Olmutinib (10 μM), NO-NSAID 100 μM
[11] = Regorafenib (5 μM), NO-NSAID 100 μM
[12] = Selumetinib (5 μM), NO-NSAID 100 μM
[13] = Sorafenib (5 μM), NO-NSAID 100 μM
[14] = Sunitinib (5 μM), NO-NSAID 100 μM

SMILES: CC(C)Cc1ccc(C(C)C(=O)OCO/N=[N+](\[O-])N(C)C)cc1 (stereo not shown) [Compound A4]
- Control rate ([1]; Capecitabine 4000 mg/kg once a day, ointment 0.50% wt, Days 40): 25.00%
- Control rate ([1]; Capecitabine 4000 mg/kg once a day, ointment 2% wt, Days 40): 57.14%
- Control rate ([1]; Cytarabine 120 mg/kg twice a day, ointment 0.50% wt, Days 30): 28.57%
- NO-NSAID response rate % (average) ([2]; Afatinib (10 μM), NO-NSAID 0.1 μM): 18%
- NO-NSAID response rate % (average) ([2]; Afatinib (10 μM), NO-NSAID 1 μM): 35%
- NO-NSAID response rate % (average) [2, 3]: 70%
- NO-NSAID response rate % (average) ([2]; Afatinib (10 μM), NO-NSAID 500 μM): 14%
- NO-NSAID response rate % (average) ([2]; Cabozantinib (5 μM), NO-NSAID 0.1 μM): 3%
- NO-NSAID response rate % (average) ([2]; Cabozantinib (5 μM), NO-NSAID 1 μM): 9%
- NO-NSAID response rate % (average) [2, 4]: 13%
- NO-NSAID response rate % (average) ([2]; Cabozantinib (5 μM), NO-NSAID 500 μM): 11%
- NO-NSAID response rate % (average) ([2]; Dabrafenib (10 μM), NO-NSAID 0.1 μM): 20%
- NO-NSAID response rate % (average) ([2]; Dabrafenib (10 μM), NO-NSAID 1 μM): 34%
- NO-NSAID response rate % (average) [2, 5]: 33%
- NO-NSAID response rate % (average) ([2]; Dabrafenib (10 μM), NO-NSAID 500 μM): 41%
- NO-NSAID response rate % (average) ([2]; Everolimus (5 μM), NO-NSAID 0.1 μM): 10%
- NO-NSAID response rate % (average) ([2]; Everolimus (5 μM), NO-NSAID 1 μM): −2%
- NO-NSAID response rate % (average) [2, 6]: 1%
- NO-NSAID response rate % (average) ([2]; Everolimus (5 μM), NO-NSAID 500 μM): 4%
- activation at 100 µM [2, 3]: 70%
- activation at 100 µM ([2]; Anlotinib (5 μM), NO-NSAID 100 μM): 67%
- activation at 100 µM ([2]; Apatinib (10 μM), NO-NSAID 100 μM): 52%
- activation at 100 µM ([2]; Axitinib (10 μM), NO-NSAID 100 μM): 39%
- activation at 100 µM [2, 4]: 13%
- activation at 100 µM [2, 5]: 33%
- activation at 100 µM ([2]; Dacomitinib (5 μM), NO-NSAID 100 μM): 71%
- activation at 100 µM ([2]; Encorafenib (5 μM), NO-NSAID 100 μM): 59%
- activation at 100 µM ([2]; Erdafitinib (10 μM), NO-NSAID 100 μM): 45%
- activation at 100 µM [2, 6]: 1%
- activation at 100 µM ([2]; Famitinib (5 μM), NO-NSAID 100 μM): 69%
- activation at 100 µM ([2]; Fruquintinib (10 μM), NO-NSAID 100 μM): 62%
- activation at 100 µM ([2]; Gefitinib (10 μM), NO-NSAID 100 μM): 42%
- activation at 100 µM [2, 7]: 30%
- activation at 100 µM [2, 8]: 30%
- activation at 100 µM [2, 9]: 74%
- activation at 100 µM [2, 10]: 28%
- activation at 100 µM [2, 11]: 74%
- activation at 100 µM [2, 12]: 34%
- activation at 100 µM [2, 13]: 76%
- activation at 100 µM [2, 14]: 34%
- activation at 100 µM ([2]; Vemurafenib (5 μM), NO-NSAID 100 μM): 58%
- NO-NSAID response rate % (average) ([2]; Infigratinib (15 μM), NO-NSAID 0.1 μM): 23%
- NO-NSAID response rate % (average) ([2]; Infigratinib (15 μM), NO-NSAID 1 μM): 39%
- NO-NSAID response rate % (average) [2, 7]: 30%
- NO-NSAID response rate % (average) ([2]; Infigratinib (15 μM), NO-NSAID 500 μM): 18%
- NO-NSAID response rate % (average) ([2]; Lapatinib (5 μM), NO-NSAID 0.1 μM): 20%
- NO-NSAID response rate % (average) ([2]; Lapatinib (5 μM), NO-NSAID 1 μM): 17%
- NO-NSAID response rate % (average) [2, 8]: 30%
- NO-NSAID response rate % (average) ([2]; Lapatinib (5 μM), NO-NSAID 500 μM): 28%
- NO-NSAID response rate % (average) ([2]; Lenvatinib (10 μM), NO-NSAID 0.1 μM): 24%
- NO-NSAID response rate % (average) ([2]; Lenvatinib (10 μM), NO-NSAID 1 μM): 15%
- NO-NSAID response rate % (average) [2, 9]: 74%
- NO-NSAID response rate % (average) ([2]; Lenvatinib (10 μM), NO-NSAID 500 μM): 14%
- NO-NSAID response rate % (average) ([2]; Olmutinib (10 μM), NO-NSAID 0.1 μM): 25%
- NO-NSAID response rate % (average) ([2]; Olmutinib (10 μM), NO-NSAID 1 μM): 38%
- NO-NSAID response rate % (average) [2, 10]: 28%
- NO-NSAID response rate % (average) ([2]; Olmutinib (10 μM), NO-NSAID 500 μM): 30%
- NO-NSAID response rate % (average) ([2]; Regorafenib (5 μM), NO-NSAID 0.1 μM): 29%
- NO-NSAID response rate % (average) ([2]; Regorafenib (5 μM), NO-NSAID 1 μM): 26%
- NO-NSAID response rate % (average) [2, 11]: 74%
- NO-NSAID response rate % (average) ([2]; Regorafenib (5 μM), NO-NSAID 500 μM): 26%
- NO-NSAID response rate % (average) ([2]; Selumetinib (5 μM), NO-NSAID 0.1 μM): 35%
- NO-NSAID response rate % (average) ([2]; Selumetinib (5 μM), NO-NSAID 1 μM): 33%
- NO-NSAID response rate % (average) [2, 12]: 34%
- NO-NSAID response rate % (average) ([2]; Selumetinib (5 μM), NO-NSAID 500 μM): 41%
- NO-NSAID response rate % (average) ([2]; Sorafenib (5 μM), NO-NSAID 0.1 μM): 4%
- NO-NSAID response rate % (average) ([2]; Sorafenib (5 μM), NO-NSAID 1 μM): 17%
- NO-NSAID response rate % (average) [2, 13]: 76%
- NO-NSAID response rate % (average) ([2]; Sorafenib (5 μM), NO-NSAID 500 μM): 16%
- NO-NSAID response rate % (average) ([2]; Sunitinib (5 μM), NO-NSAID 0.1 μM): 19%
- NO-NSAID response rate % (average) ([2]; Sunitinib (5 μM), NO-NSAID 1 μM): 20%
- NO-NSAID response rate % (average) [2, 14]: 34%
- NO-NSAID response rate % (average) ([2]; Sunitinib (5 μM), NO-NSAID 500 μM): 20%
